Measurements: patent US20040072767A1, “Glucopyranose derivatives and medicaments for preventing and/or treating HIV infection diseases comprising the same as an active ingredient” (ONO PHARMACEUTICAL CO., LTD., priority 1998, published 2004)

biological target: T1, CXCR4 (Homo sapiens, UniProt P61073); assay: Inhibition experiment against induction activity of SDF-1 on transitory increase of Ca ion; type: cell-based; settings: CCRF-HSB-2; test compound 10 μM; SDF-1β 30 nM added 3 minutes after compound; CCRF-HSB2 human T cells loaded with Fura-2AM; read-out: Inhibition rate (%)
T1 construct: host or cells: CCRF-HSB2 human T cells
T1 sequence (P61073 whole entry): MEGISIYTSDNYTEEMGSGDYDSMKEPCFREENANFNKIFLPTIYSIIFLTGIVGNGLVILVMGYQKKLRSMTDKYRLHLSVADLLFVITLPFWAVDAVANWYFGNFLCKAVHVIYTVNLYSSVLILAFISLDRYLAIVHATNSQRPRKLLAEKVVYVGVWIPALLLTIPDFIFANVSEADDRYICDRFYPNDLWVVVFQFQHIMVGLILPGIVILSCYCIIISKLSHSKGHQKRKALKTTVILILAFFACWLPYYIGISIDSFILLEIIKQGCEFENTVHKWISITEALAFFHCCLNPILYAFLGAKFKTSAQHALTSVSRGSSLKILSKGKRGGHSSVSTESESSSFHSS
From the text: As described above, for screening a compound inhibiting the binding of HIV to CXCR4 which is a receptor on T cell, it is a more direct procedure to carry out the screening in an assay system using HIV virus. However, use of HIV virus on a large scale screening is not practical owing to its difficulty of handling. On the other hand, since HIV and SDF-1 are both bound to CXCR4, it is expectable that there are some common characteristics between the CXCR4 binding sites of both HIV and SDF-1 sides and the SDF-1 and HIV binding sites of CXCR4 side. Therefore, in order to find out a compound inhibiting the adsorption of HIV virus to a cell, i.e., having an activity mechanism different from the existing anti-AIDS medicaments (inhibitors of reverse transcription and inhibitors of proteases), it is possible to utilize an assay system using SDF-1 which is an original ligand for CXCR4, instead of HIV. More particularly, as an example of the screening system of a compound inhibiting the binding of SDF-1 to CXCR4, a system of measuring an effect on transitory increase of Ca ion induced by SDF-1 through CXCR4 is practicable since CXCR4 is a G protein-conjugated seven-times transmembrane-type receptor.
A human T cell expressing CXCR4, for example cells of CCRF-HSB2 (ATCC No. CCL-120.1) were suspended into RPMI-1640 medium, fetal bovine serum (FBS) (10%), Fura-2AM (5 μM) (Dojin Kagaku, cat# 343-05401), Probenecid (2.5 mM), and a HEPES buffer (20 mM, pH 7.4) so as to be 5×10^6 cell/ml, and the suspension was heated at 37° C. for 30 minutes under a light-shielded condition. Then, a 4 to 8 fold-diluted Hanks solution (1× Hanks), HEPES (20 mM, pH 7.4) and Probenecid (2.5 mM) were added thereto, and the whole was heated for another 30 minutes. After the cells were washed with a solution of 1× Hanks, HEPES (20 mM, pH 7.4) and Probenecid (2.5 mM), they were re-suspended into the solution so as to be 2×10^6 cell/ml. For the T cell on which Fura-2AM had been loaded, the transitory increase of Ca induced by the addition of recombinant SDF-1β dissolved in PBS(−) was detected by use of a suitable Ca detector. In the inhibition experiment, the inhibitory effect of a test compound (10 μM) on the transitory increase of Ca induced by the addition of recombinant SDF-1β were measured by adding SDF-1β at an amount so as to be final concentration of, for example, 30 nM at 3 minutes after the addition of the test compound. An inhibition rate (%) was calculated according to the following equation.
Inhibition rate=(Ec−Ea)/Ec×100
In the equation, each symbol means as follows: […]
Ec: measured value of the transitory increase of Ca induced by SDF-1β
Ea: measured value of the transitory increase of Ca induced by SDF-1β when a test compound was added.

| inhibition at 10 µM [%] | SMILES |
| --- | --- |
| 79 | CCCCCCCCCCC[C@H](CC(=O)N[C@H]1C(O)O[C@H](CO)[C@@H](OS(=O)(=O)O)[C@@H]1OC(=O)CCCCC)OC(=O)CCCCC (stereo partly drawn) [Example 2 (3), 2-deoxy-2-[3R-(hexanoyloxy)tetradecanoyl]amino-3-O-hexanoyl-4-O-sulfo-D-glucopyranose] |
| 94 | CCCCCCCCCCC[C@H](CC(=O)N[C@H]1C(O)O[C@H](CO)[C@@H](OS(=O)(=O)O)[C@@H]1OC(=O)CCCCCCCCC)OC(=O)CCCCCCCCC (stereo partly drawn) [Example 2 (4), 2-deoxy-2-[3R-(decanoyloxy)tetradecanoyl]amino-3-O-decanoyl-4-O-sulfo-D-glucopyranose] |
| 99 | CCCCCCCCCCCC(=O)O[C@H](CCCCCCCCCCC)CC(=O)N[C@H]1C(O)O[C@H](CO)[C@@H](OS(=O)(=O)O)[C@@H]1OC(=O)CCCCCCCCCCC (stereo partly drawn) [Example 2 (5), 2-deoxy-2-[3R-(dodecanoyloxy)tetradecanoyl]amino-3-O-dodecanoyl-4-O-sulfo-D-glucopyranose] |

same assay, conditions: test compound 10 μM; SDF-1β 30 nM added 3 minutes after compound; CCRF-HSB2 human T cells loaded with Fura-2AM

| Inhibition rate (%) | SMILES |
| --- | --- |
| 97 | CCCCCCCCCCC[C@@H](CC(=O)N[C@H]1C(O)O[C@H](CO)[C@@H](OS(=O)(=O)O)[C@@H]1OC(=O)CCCCCCCc1ccc(OC)cc1)OC(=O)CCCCCCCc1ccc(OC)cc1 (stereo partly drawn) [Compound (3)] |
| 96 | CCCCCCCCCCC[C@@H](CC(=O)N[C@H]1C(O)O[C@H](CO)[C@@H](OS(=O)(=O)O)[C@@H]1OC(=O)CCCCCCCCc1ccc(Cl)cc1)OC(=O)CCCCCCCCc1ccc(Cl)cc1 (stereo partly drawn) [Compound (4)] |
| 97 | CCCCCCCCCCC[C@@H](CC(=O)N[C@H]1C(O)O[C@H](CO)[C@@H](OS(=O)(=O)O)[C@@H]1OC(=O)CCCCc1ccc(CCCCC)cc1)OC(=O)CCCCc1ccc(CCCCC)cc1 (stereo partly drawn) [Compound (5), 2-deoxy-2-[3S-[5-(4-pentylphenyl)pentanoyloxy]tetradecanoyl]amino-3-O-[5-(4-pentylphenyl)pentanoyl]4-O-sulfo-D-glucopyranose] |
| 92 | CCCCCCCCC[C@@H](CC(=O)N[C@H]1C(O)O[C@H](CO)[C@@H](OS(=O)(=O)[O-])[C@@H]1OC(=O)CCCCCCCCc1ccccc1)OC(=O)CCCCCCCCc1ccccc1.[Na+] (stereo partly drawn) [Compound (16), 2-Deoxy-2-[3S-[9-phenylnonanoyloxy]dodecanoyl]amino-3-O-[9-phenylnonanoyl]4-O-sulfo-D-glucopyranose sodium salt] |
| 93 | CCCCCCCCCCCCC[C@@H](CC(=O)N[C@H]1C(O)O[C@H](CO)[C@@H](OS(=O)(=O)[O-])[C@@H]1OC(=O)CCCCCCCCc1ccccc1)OC(=O)CCCCCCCCc1ccccc1.[Na+] (stereo partly drawn) [Compound (17), 2-Deoxy-2-[3S-[9-phenylnonanoyloxy]hexadecanoyl]amino-3-O-[9-phenylnonanoyl]4-O-sulfo-D-glucopyranose sodium salt] |
| 91 | CCCCCCCCCCC[C@H](CC(=O)N[C@H]1C(O)O[C@H](CO)[C@@H](OS(=O)(=O)[O-])[C@@H]1OC(=O)CCCCCCCCc1ccccc1)OC(=O)CCCCCCCCc1ccccc1.[Na+] (stereo partly drawn) [Compound (18), 2-Deoxy-2-R[3-[9-phenylnonanoyloxy]tetradecanoyl]amino-3-O-[9-phenylnonanoyl]4-O-sulfo-D-glucopyranose sodium salt] |

Further lines, the molecule ahead of its results:

| SMILES | Inhibition rate (%) |
| --- | --- |
| CCCCCCCCCCC[C@@H](CC(=O)N[C@H]1C(O)O[C@H](CO)[C@@H](OS(=O)(=O)[O-])[C@@H]1OC(=O)CCCCCCCCc1ccccc1)OC(=O)CCCCCCCCc1ccccc1.[Na+] (stereo partly drawn) [Compound (1), 2-Deoxy-2-[3S-(9-phenylnonanoyloxy)tetradecanoyl]amino-3-O-(9-phenylnonanoyl)-4-O-sulfo-D-glucopyranose sodium salt] | 93 |
| O=C(C[C@H](CCCCCCc1ccccc1)OC(=O)CCCCCCCCc1ccccc1)N[C@H]1C(O)O[C@H](CO)[C@@H](OS(=O)(=O)O)[C@@H]1OC(=O)CCCCCCCCc1ccccc1 (stereo partly drawn) [Compound (2), 2-deoxy-2-[3S-(9-phenylnonanoyloxy)-9-phenylnonanoyl]amino-3-O-(9-phenylnonanoyl)-4-O-sulfo-D-glucopyranose] | 96 |
| O=C(CCCCCCCCc1ccc2ccccc2c1)N[C@H]1C(O)O[C@H](CO)[C@@H](OS(=O)(=O)O)[C@@H]1OC(=O)CCCCCCCCc1ccc2ccccc2c1 (stereo partly drawn) [Compound (6), 2-deoxy-2-[9-(2-naphthyl)nonanoyl]amino-3-O-[9-(2-naphthyl)nonanoyl]-40-sulfo-D-glucopyranose] | 97 |
| CCCCCCCCCCC[C@@H](CC(=O)N[C@H]1C(O)O[C@H](CO)[C@@H](OS(=O)(=O)O)[C@@H]1OC(=O)CCCCCCCOc1cc(Cl)cc(Cl)c1)OC(=O)CCCCCCCOc1cc(Cl)cc(Cl)c1 (stereo partly drawn) [Compound (7), 2-deoxy-2-[3S-[8-(3,5-dichlorophenoxy)octanoyloxy]tetradecanoyl]amino-3-O-[8-(3,5-dichlorophenoxy)octanoyl]-4-O-sulfo-D-glucopyranose] | 95 |
| CCCCCCCCCCCC(CC(=O)N[C@H]1COC[C@@H](OS(=O)(=O)O)[C@@H]1OC(=O)CCCCCCCCc1ccccc1)OC(=O)CCCCCCCCc1ccccc1 (stereo partly drawn) [Compound (8), 2-deoxy-2-[3RS-(9-phenylnonanoyloxy)tetradecanoyl]amino-3-O-(9-phenylnonanoyl)-4-O-sulfo-1,5-anhydro-D-xylitol] | 94 |
| CCCCCCCCCCCCCC(=O)O[C@H]1[C@H](OS(=O)(=O)O)[C@@H](CO)OC(O)[C@@H]1NC(=O)c1ccc(OCCCCCCCCCC)c(OCCCCCCCCCC)c1 (stereo partly drawn) [Compound (9)] | 93 |
| CCCCCCCCCCCCCC(=O)O[C@@H]1[C@@H](NC(=O)c2ccc(OCCCCCCCCCC)c(OCCCCCCCCCC)c2)[C@@H](OC)O[C@H](CO)[C@H]1OS(=O)(=O)O [Compound (10), methyl 2-deoxy-2-(3,4-didecyloxybenzoyl) amino-3-O-tetradecanoyl-4-O-sulfo-α-D-glucopyranoside] | 91 |
| CCCCCCCCCCC[C@@H](CC(=O)N[C@H]1CO[C@H](C)[C@@H](OS(=O)(=O)O)[C@@H]1OC(=O)CCCCCCCCc1ccccc1)OC(=O)CCCCCCCCc1ccccc1 [Compound (12), 2,6-deoxy-2-[3S-(9-phenylnonanoyloxy)tetradecanoyl]amino-3-O-(9-phenylnonanoyl)-4-O-sulfo-1,5-anhydro-D-glucitol] | 94 |
| CCCCCCCCCCCC(CC(=O)NC1CCCC(OS(=O)(=O)O)C1OC(=O)CCCCCCCCc1ccccc1)OC(=O)CCCCCCCCc1ccccc1 (stereo not drawn) [Compound (13), 3(syn)-[3RS-(9-phenylnonanoyloxy)tetradecanoyl]amino-2RS (anti)-(9-phenylnonanoyloxy)cyclohexa-1RS-yl-O-sulfonic acid] | 86 |
| CCCCCCCCCCC[C@@H](CC(=O)N[C@H]1C(O)O[C@H](CO)[C@@H](OS(=O)(=O)[O-])[C@@H]1OC(=O)CCCCCCCCc1ccccc1)OC(=O)CCc1ccccc1.[Na+] (stereo partly drawn) [Compound (14), 2-Deoxy-2-[3S-[3-phenylpropanoyloxy]tetradecanoyl]amino-3-O-[9-phenylnonanoyl]4-O-sulfo-D-glucopyranose sodium salt] | 96 |
| CCCCCCCCCCC[C@@H](CC(=O)N[C@H]1C(O)O[C@H](CO)[C@@H](OS(=O)(=O)[O-])[C@@H]1OC(=O)CCc1ccccc1)OC(=O)CCCCCCCCc1ccccc1.[Na+] (stereo partly drawn) [Compound (15), 2-Deoxy-2-[3S-[9-phenylnonanoyloxy]tetradecanoyl]amino-3-O-[3-phenylpropanoyl]-4-O-sulfo-D-glucopyranose sodium salt] | 93 |
| CCCCCCCCCCCCCC(=O)O[C@@H](CCCCCCCCCCC)CC(=O)N[C@H]1C(O)O[C@H](C)[C@@H](OS(=O)(=O)O)[C@@H]1OC(=O)CCCCCCCCCCCCC (stereo partly drawn) [Example 4, 2,6-deoxy-2-[3S-(tetradecanoyloxy)tetradecanoyl]amino-3-O-tetradecanoyl-4-O-sulfo-D-glucopyranose] | 92 |
